Values joined by “and” are separate entries in the source; they are usually repeats but may differ in a detail not shown here. Equal values may be shown once.
Experiment: xn = mol fraction of the nth substance listed

CCCC[n+]1ccn(C)c1.[Br-] + O
Details	viscosity
308.15 K, 101.3 kPa, x1 = 0.000911	0.735 mPa·s
308.15 K, 101.3 kPa, x1 = 0.001806	0.752 mPa·s
308.15 K, 101.3 kPa, x1 = 0.001835	0.746 mPa·s and 0.747 mPa·s
308.15 K, 101.3 kPa, x1 = 0.001856	0.75 mPa·s
308.15 K, 101.3 kPa, x1 = 0.0036	0.776 mPa·s
308.15 K, 101.3 kPa, x1 = 0.003602	0.773 mPa·s
308.15 K, 101.3 kPa, x1 = 0.003605	0.77 mPa·s and 0.771 mPa·s
308.15 K, 101.3 kPa, x1 = 0.005384	0.798 mPa·s
308.15 K, 101.3 kPa, x1 = 0.005411	0.801 mPa·s
308.15 K, 101.3 kPa, x1 = 0.005432	0.802 mPa·s
310.15 K, 101.3 kPa, x1 = 0.000902	0.711 mPa·s
310.15 K, 101.3 kPa, x1 = 0.0009056	0.707 mPa·s
310.15 K, 101.3 kPa, x1 = 0.0009074	0.71 mPa·s
310.15 K, 101.3 kPa, x1 = 0.000911	0.707 mPa·s
310.15 K, 101.3 kPa, x1 = 0.001806	0.723 mPa·s
310.15 K, 101.3 kPa, x1 = 0.001835	0.717 mPa·s and 0.718 mPa·s
310.15 K, 101.3 kPa, x1 = 0.001856	0.723 mPa·s
310.15 K, 101.3 kPa, x1 = 0.0036	0.75 mPa·s
310.15 K, 101.3 kPa, x1 = 0.003602	0.746 mPa·s
310.15 K, 101.3 kPa, x1 = 0.003605	0.74 mPa·s and 0.742 mPa·s
310.15 K, 101.3 kPa, x1 = 0.005384	0.767 mPa·s
310.15 K, 101.3 kPa, x1 = 0.005411	0.767 mPa·s
310.15 K, 101.3 kPa, x1 = 0.005432	0.772 mPa·s
313.15 K, 100 kPa, x1 = 0.0009002	0.676 mPa·s
313.15 K, 100 kPa, x1 = 0.001799	0.689 mPa·s
313.15 K, 100 kPa, x1 = 0.002696	0.749 mPa·s
313.15 K, 100 kPa, x1 = 0.3882	20 mPa·s
313.15 K, 101.3 kPa, x1 = 0.00144	0.58 mPa·s and 0.695 mPa·s and 0.697 mPa·s
318.15 K, 100 kPa, x1 = 0.0001802	0.634 mPa·s
318.15 K, 100 kPa, x1 = 0.0007203	0.64 mPa·s
318.15 K, 100 kPa, x1 = 0.0009002	0.618 mPa·s and 0.619 mPa·s
318.15 K, 100 kPa, x1 = 0.00126	0.646 mPa·s
318.15 K, 100 kPa, x1 = 0.001799	0.631 mPa·s
318.15 K, 100 kPa, x1 = 0.002696	0.68 mPa·s
318.15 K, 101.3 kPa, x1 = 0.000902	0.611 mPa·s
318.15 K, 101.3 kPa, x1 = 0.0009056	0.608 mPa·s and 0.609 mPa·s
318.15 K, 101.3 kPa, x1 = 0.0009074	0.612 mPa·s
318.15 K, 101.3 kPa, x1 = 0.000911	0.608 mPa·s
318.15 K, 101.3 kPa, x1 = 0.001806	0.623 mPa·s
318.15 K, 101.3 kPa, x1 = 0.001835	0.619 mPa·s
318.15 K, 101.3 kPa, x1 = 0.001856	0.622 mPa·s
318.15 K, 101.3 kPa, x1 = 0.0036	0.643 mPa·s
318.15 K, 101.3 kPa, x1 = 0.003602	0.642 mPa·s
318.15 K, 101.3 kPa, x1 = 0.003605	0.638 mPa·s and 0.639 mPa·s
318.15 K, 101.3 kPa, x1 = 0.005384	0.659 mPa·s and 0.66 mPa·s
318.15 K, 101.3 kPa, x1 = 0.005411	0.66 mPa·s
318.15 K, 101.3 kPa, x1 = 0.005432	0.665 mPa·s
323.15 K, 100 kPa, x1 = 0.3882	14.6 mPa·s
333.15 K, 100 kPa, x1 = 0.05	1.04 mPa·s
333.15 K, 100 kPa, x1 = 0.0992	1.66 mPa·s
333.15 K, 100 kPa, x1 = 0.1979	3.69 mPa·s
333.15 K, 100 kPa, x1 = 0.2517	4.94 mPa·s
333.15 K, 100 kPa, x1 = 0.3882	10.6 mPa·s

— the CheMixHub ionic liquid set
